Data reported in US20260027116A1, “Methods of Treating Chronic Graft-Versus-Host Disease Following Allogeneic Hematopoietic Stem Cell Transplantation” (Kadmon Corporation, LLC, priority 2022, published 2026).

System: patients with cGVHD
Description: All responses were assessed by the investigators.
Reported Adverse Events. […] All-cause mortality data collected during the study were assessed for all enrolled participants. Disease progression related death was not reported as AE.
Number of Participants With Treatment-emergent Adverse Events (TEAEs), and Treatment-emergent Serious Adverse Events (TESAEs). […] TEAEs included both SAEs and non-SAEs. […] Analysis was performed on safety population which included all participants who received at least 1 dose of study medication.

SMILES: CC(C)NC(=O)COc1cccc(-c2nc(Nc3ccc4[nH]ncc4c3)c3ccccc3n2)c1 [Belumosudil, 2-{3-[4-(1H-indazol-5-ylamino)-2-quinazolinyl]phenoxy}-N-(propan-2-yl) acetamide]
- Vertigo: # Events (Cohort 1 200 mg QD): 2
- Vertigo: Affected/At Risk (%) (Cohort 1 200 mg QD): 2/17 (11.76%)
- Vision blurred: # Events (Cohort 1 200 mg QD): 0
- Vision blurred: Affected/At Risk (%) (Cohort 1 200 mg QD): 0/17 (0%)
- Vomiting: # Events (Cohort 1 200 mg QD): 4
- Vomiting: Affected/At Risk (%) (Cohort 1 200 mg QD): 2/17 (11.76%)
- Weight decreased: # Events (Cohort 1 200 mg QD): 1
- Weight decreased: Affected/At Risk (%) (Cohort 1 200 mg QD): 1/17 (5.88%)
- Weight increased: # Events (Cohort 1 200 mg QD): 9
- Weight increased: Affected/At Risk (%) (Cohort 1 200 mg QD): 3/17 (17.65%)
- White blood cell count decreased: # Events (Cohort 1 200 mg QD): 1
- White blood cell count decreased: Affected/At Risk (%) (Cohort 1 200 mg QD): 1/17 (5.88%)
- Abdominal distension: # Events (Cohort 2 200 mg BID): 0
- Abdominal distension: Affected/At Risk (%) (Cohort 2 200 mg BID): 0/16 (0%)
- Abdominal pain upper: # Events (Cohort 2 200 mg BID): 1
- Abdominal pain upper: Affected/At Risk (%) (Cohort 2 200 mg BID): 1/16 (6.25%)
- Abdominal pain: # Events (Cohort 2 200 mg BID): 4
- Abdominal pain: Affected/At Risk (%) (Cohort 2 200 mg BID): 2/16 (12.5%)
- Actinic keratosis: # Events (Cohort 2 200 mg BID): 1
- Actinic keratosis: Affected/At Risk (%) (Cohort 2 200 mg BID): 1/16 (6.25%)
- Acute kidney injury: # Events (Cohort 2 200 mg BID): 2
- Acute kidney injury: Affected/At Risk (%) (Cohort 2 200 mg BID): 2/16 (12.5%)
- Acute respiratory distress syndrome: # Events (Cohort 2 200 mg BID): 0
- Acute respiratory distress syndrome: Affected/At Risk (%) (Cohort 2 200 mg BID): 0/16 (0%)
- Adrenal insufficiency: # Events (Cohort 2 200 mg BID): 0
- Adrenal insufficiency: Affected/At Risk (%) (Cohort 2 200 mg BID): 0/16 (0%)
- Alanine aminotransferase increased: # Events (Cohort 2 200 mg BID): 4
- Alanine aminotransferase increased: Affected/At Risk (%) (Cohort 2 200 mg BID): 3/16 (18.75%)
- All grade ALT/AST increased, No. (%) (Cohort 2 200 mg BID): 5 (31)
- All grade Cough, No. (%) (Cohort 2 200 mg BID): 4 (25)
- All grade Diarrhea, No. (%) (Cohort 2 200 mg BID): 5 (31)
- All grade Dyspnea, No. (%) (Cohort 2 200 mg BID): 6 (38)
- All grade Fatigue, No. (%) (Cohort 2 200 mg BID): 3 (19)
- All grade Headache, No. (%) (Cohort 2 200 mg BID): 3 (19)
- All grade Hypertension, No. (%) (Cohort 2 200 mg BID): 2 (13)
- All grade Nausea, No. (%) (Cohort 2 200 mg BID): 4 (25)
- All grade Peripheral edema, No. (%) (Cohort 2 200 mg BID): 4 (25)
- All grade URI, No. (%) (Cohort 2 200 mg BID): 9 (56)
- All-Cause Mortality, % (Cohort 2 200 mg BID): (18.75%)
- All-Cause Mortality, Affected/At Risk (Cohort 2 200 mg BID): 3/16
- Anaemia: # Events (Cohort 2 200 mg BID): 8
- Anaemia: Affected/At Risk (%) (Cohort 2 200 mg BID): 4/16 (25%)
- Anal incontinence: # Events (Cohort 2 200 mg BID): 0
- Anal incontinence: Affected/At Risk (%) (Cohort 2 200 mg BID): 0/16 (0%)
- Anxiety: # Events (Cohort 2 200 mg BID): 3
- Anxiety: Affected/At Risk (%) (Cohort 2 200 mg BID): 2/16 (12.5%)
- Any AE, No. (%) (Cohort 2 200 mg BID): 16 (100)
- Arthralgia: # Events (Cohort 2 200 mg BID): 1
- Arthralgia: Affected/At Risk (%) (Cohort 2 200 mg BID): 1/16 (6.25%)
- Aspartate aminotransferase increased: # Events (Cohort 2 200 mg BID): 2
- Aspartate aminotransferase increased: Affected/At Risk (%) (Cohort 2 200 mg BID): 2/16 (12.5%)
- Asthenia: # Events (Cohort 2 200 mg BID): 1
- Asthenia: Affected/At Risk (%) (Cohort 2 200 mg BID): 1/16 (6.25%)
- Atelectasis: # Events (Cohort 2 200 mg BID): 0
- Atelectasis: Affected/At Risk (%) (Cohort 2 200 mg BID): 0/16 (0%)
- Back pain: # Events (Cohort 2 200 mg BID): 2
- Back pain: Affected/At Risk (%) (Cohort 2 200 mg BID): 2/16 (12.5%)
- Balance disorder: # Events (Cohort 2 200 mg BID): 1
- Balance disorder: Affected/At Risk (%) (Cohort 2 200 mg BID): 1/16 (6.25%)
- Basal cell carcinoma: # Events (Cohort 2 200 mg BID): 1
- Basal cell carcinoma: Affected/At Risk (%) (Cohort 2 200 mg BID): 1/16 (6.25%)
- Benign prostatic hyperplasia: # Events (Cohort 2 200 mg BID): 0
- Benign prostatic hyperplasia: Affected/At Risk (%) (Cohort 2 200 mg BID): 0/16 (0%)
- Blepharitis: # Events (Cohort 2 200 mg BID): 0
- Blepharitis: Affected/At Risk (%) (Cohort 2 200 mg BID): 0/16 (0%)
- Blister: # Events (Cohort 2 200 mg BID): 3
- Blister: Affected/At Risk (%) (Cohort 2 200 mg BID): 2/16 (12.5%)
- Blood alkaline phosphatase increased: # Events (Cohort 2 200 mg BID): 1
- Blood alkaline phosphatase increased: Affected/At Risk (%) (Cohort 2 200 mg BID): 1/16 (6.25%)
- Blood chloride decreased: # Events (Cohort 2 200 mg BID): 1
- Blood chloride decreased: Affected/At Risk (%) (Cohort 2 200 mg BID): 1/16 (6.25%)
- Blood cholesterol increased: # Events (Cohort 2 200 mg BID): 0
- Blood cholesterol increased: Affected/At Risk (%) (Cohort 2 200 mg BID): 0/16 (0%)
- Blood creatine increased: # Events (Cohort 2 200 mg BID): 1
- Blood creatine increased: Affected/At Risk (%) (Cohort 2 200 mg BID): 1/16 (6.25%)
- Blood creatine phosphokinase increased: # Events (Cohort 2 200 mg BID): 0
- Blood creatine phosphokinase increased: Affected/At Risk (%) (Cohort 2 200 mg BID): 0/16 (0%)
- Blood creatinine increased: # Events (Cohort 2 200 mg BID): 1
- Blood creatinine increased: Affected/At Risk (%) (Cohort 2 200 mg BID): 1/16 (6.25%)
- Blood loss anaemia: # Events (Cohort 2 200 mg BID): 0
- Blood loss anaemia: Affected/At Risk (%) (Cohort 2 200 mg BID): 0/16 (0%)
- Bronchial secretion retention: # Events (Cohort 2 200 mg BID): 1
- Bronchial secretion retention: Affected/At Risk (%) (Cohort 2 200 mg BID): 1/16 (6.25%)
- Bronchitis: # Events (Cohort 2 200 mg BID): 0
- Bronchitis: Affected/At Risk (%) (Cohort 2 200 mg BID): 0/16 (0%)
